# Assay results taken from patent US20050059658A1, “Pyridazinone” (priority 2001, published 2005).
# Tests used:
# [1] = tested on: Human cytomegalovirus (HCMV), DavisSmith strain; experiment: HCMV xenograft Gelfoam model; assay type: in vivo, immunodeficient mice; settings: perorally three times a day for 8 days, SCID mice, HCMV-infected NHDF cells in Gelfoam sponge
# Text: Female immunodeficient mice (16-18 g), Fox Chase SCID or Fox Chase SCID-NOD or SCID-beige, 3-4 weeks old, are obtained from commercial breeders (Bomholtgaard, Jackson). The animals are kept under sterile conditions (including litter and feed) in isolation units.
# Human cytomegalovirus (HCMV), DavisSmith strain, is cultivated in vitro on embryonal human dermal fibroblasts (NHDF cells). Following infection of the NHDF cells with a multiplicity of infection (M.O.I.) of 0.01, the virus-infected cells are harvested after 5-7 days and, in the presence of minimal essential medium (MEM), 10% fetal calf serum (FCS) with 10% DMSO, stored at −40° C. Following serial dilution of the virus-infected cells in steps of ten, the titer is determined on 24-well plates of confluent NHDF cells after vital stain with Neutral Red.
# Collagen sponges (Gelfoam®; from Peasel & Lorey, order No. 40734; K. T. Chong et al., Abstracts of 39th Interscience Conference on Antimicrobial Agents and Chemotherapy, 1999, p. 439) of a size of 1×1×1 cm are initially wetted with phosphate-buffered saline (PBS), the enclosed air bubbles are removed by degassing and the sponges are then stored in MEM+10% FCS. […] What is determined is the number of infectious virus particles after substance treatment compared to the placebo-treated control group.
# [2] = tested on: human cytomegalovirus (HCMV); experiment: Anti-HCMV (anti-human cytomegalovirus) cytopathogenicity test; assay type: cell-based; settings: for EC50: Human betaherpesvirus 5, 144 h, HCMV-infected NHDF cells, M.O.I. 0.001-0.002, 6 days, 50% inhibition of CPE; for SI HCMV: selectivity index = CC50 (NHDF)/EC50 (HCMV)
# Method: (§1) The test compounds are used as 50 millimolar (mM) solutions in dimethyl sulfoxide (DMSO). The reference compounds used are ganciclovir, foscarnet and cidofovir. In each case 2 μl of the 50, 5, 0.5 and 0.05 mM DMSO stock solutions are added to in each case 98 μl of cell culture medium in row […] in duplicate, and 1:2 dilutions with in each case 50 μl of medium are then made up to row 11 of the 96-well plate. The wells in rows 1 and 12 each contain 50 μl of medium. In each case 150 μl of a suspension of 1×10^4 cells (NHDF=normal human dermal fibroblasts) (row 1 =cell control) and, for rows 2-12, a mixture of HCMV-infected and non-infected NHDF cells (M.O.I.=0.001-0.002), i.e. 1-2 infected cells per 1000 non-infected cells, are then pipetted into the wells. Row 12 (without substance) serves as virus control. The final test concentrations are 250-0.0005 μM. The plates are incubated at 37° C./5% CO2 for 6 days, i.e. until all cells in the virus controls are infected (100% cytopathogenic effect [CPE]). The wells are then fixed by adding a mixture of formalin and Giemsa's dye and stained (30 minutes), washed with doubly distilled water and dried in a drying cabinet at 50° C. The plates are then examined visually using an overhead microscope (Plaque multiplier from Technomara). Using the test plates, the following data can be determined: • CC50 (NHDF)=substance concentration in μM where, compared to the untreated cell control, no cytostatic effects on the cells are evident; • EC50 (HCMV)=substance concentration in μM where the CPE (cytopathic effect) is inhibited by 50% compared to the untreated virus control; • SI (selectivity index)=CC50 (NHDF)/EC50 (HCMV). In vivo Action: HCMV Xenograft Gelfoam® Model: Animals: […]
# [3] = Cytotoxicity on NHDF cells in the anti-HCMV cytopathogenicity test; assay type: cell-based; settings: human, NHDF cells (normal human dermal fibroblasts), 6 days incubation, visual evaluation
# Method: as §1
Structure (SMILES),Murine xenograft model ED50 t.i.d. [1] [mg]kg],melting point [°C],EC50 [2] [µM],SI HCMV [2],CC50 at 6 days [3] [µM]
"CC1(C)CC(=O)NN=C1c1cccc(NC(=O)Nc2ccc(F)cc2F)c1 [Example 1, N-(2,4-Difluorophenyl)-N′-[3-(4,4-dimethyl-6-oxo-1,4,5,6-tetrahydro-3-pyridazinyl)-phenyl]urea]",18,213,0.96,130,125
"CC1(C)CC(=O)NN=C1c1cccc(NC(=O)Nc2ccc(F)c(Cl)c2)c1 [Example 2, N-(3-Chloro-4-fluorophenyl)-N′-[3-(4,4-dimethyl-6-oxo-1,4,5,6-tetrahydro-3-pyridazinyl)phenyl]urea]",–,–,0.07,329,23
"CC1(C)CC(=O)NN=C1c1cccc(NC(=O)Nc2cccc(Br)c2)c1 [Example 3, N-(3-Bromophenyl)-N′-[3-(4,4-dimethyl-6-oxo-1,4,5,6-tetrahydro-3-pyridazinyl)-phenyl]urea]",–,207,0.13,185,24
"Cc1cc(Cl)ccc1NC(=O)Nc1cccc(C2=NNC(=O)CC2(C)C)c1 [Example 4, N-(4-Chloro-2-methylphenyl)-N′-[3-(4,4-dimethyl-6-oxo-1,4,5,6-tetrahydro-3-pyridazinyl)phenyl]urea]",8,232,0.15,>153,> 23
"CC1(C)CC(c2ccccc2NC(=O)Nc2ccc(F)cc2F)=NNC1=O [Example 5, N-(2,4-Difluorophenyl)-N′-[2-(5,5-dimethyl-6-oxo-1,4,5,6-tetrahydro-3-pyridazinyl)-phenyl]urea]",–,–,6.1,21,125
"CC1(C)CC(c2cccc(NC(=O)Nc3ccc(F)c(F)c3)c2)=NNC1=O [Example 6, N-(3,4-Difluorophenyl)-N′-[3-(5,5-dimethyl-6-oxo-1,4,5,6-tetrahydro-3-pyridazinyl)-phenyl]urea]",–,200,–,–,–
